Here are results for 5 compounds from patent US8906829B2, “Synergistic algicidal compositions including hydrazone derivatives and copper” (Dow AgroSciences LLC, priority 2010, dated 2014).

In one series the test system is C. reinhardtii CC-1928. The series is described as follows: Effect of copper on activity of hydrazones: in vitro growth inhibition of C. reinhardtii in TAP Cu minus / TAP Cu plus medium (Example 10). The settings on record: test compound 1 μg/mL, 48 h; for inhibition of growth at 1 µg/mL: Chlamydomonas reinhardtii, TAP Cu minus medium, read-out: % Inhn. Minus Copper Observed; for % Inhn. Plus Copper Observed: TAP Cu plus medium (CuCl2). Type of series: cell-based, Chlamydomonas reinhardtii. An outline of the steps: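 Washed cells (suspension 2×10^5 spores per mL) added to compound at 1 μg/mL in Chelex-treated TAP Cu minus or TAP Cu plus (20 μM CuCl2). After 48 h at 27 °C, growth read by light scattering; % inhibition vs compound-free wells, plus-Cu predicted values by Colby formula from minus-Cu data.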

The test system of a further series is C. reinhardtii. Kind of series: Growth inhibition of C. reinhardtii by hydrazones and isolated metal-hydrazone complexes, TAP Cu minus medium (Example 12). Type of series: cell-based, Chlamydomonas reinhardtii. The settings on record: for inhibition of growth at 1 µg/mL: Chlamydomonas reinhardtii, parent hydrazone 1 μg/mL, read-out: Hydrazone % Inhn. As for the experimental part: In vitro toxicity assays against C. reinhardtii CC-1928 (wild type mt+137c green in dark subclone) obtained from the Chlamydomonas Resource Center at Duke University were conducted using TAP liquid growth medium described by Gorman and Levine Proc. Natl. Acad. Sci. USA 1965, 54, 1665-1669 except that CuSO4.5H2O, normally included as a component of Hutner's trace element stock solution (Hutner et al. Proc. Am. Philos. Soc. 1950, 94, 152-170), was omitted. The TAP medium lacking Cu (TAP Cu minus) was prepared by adding 400 mg NH4Cl, 10 mL of 100× Tris-Acetate (242 g Tris-base and 100 mL glacial acetic acid in 1000 mL milli Q water), and 8.3 mL of 120.5× phosphate buffer (14.34 g K2HPO4 and 7.26 g KH2PO4 in 1000 mL milli Q water) to milli Q water to make a total volume of 1 liter. The medium was treated with 0.5 g Chelex 100 resin (Bio-Rad Analytical grade, 50-100 mesh, sodium form, cat#142-2822) by stirring at room temperature for 1 hour. 900 mL were decanted and 45.9 mg of CaCl2.2H2O, 90 mg of MgSO4.7H2O and 0.9 mL Hutner's trace elements lacking CuSO4.5H2O were added and the solution was filter-sterilized. Medium containing copper (TAP Cu plus) was prepared by adding CuCl2.2H2O to the TAP Cu minus medium at 20 μM. Test compounds were dissolved in dimethylsulfoxide (DMSO) at 2 mg/mL then dilutions in TAP Cu minus and TAP Cu plus media were prepared in sterilized microcentrifuge tubes at 2 μg/mL. 100 μL aliquots of diluted compound were dispensed into flat-bottomed 96-well microtiter plates. C. reinhardtii was maintained under 12 h of light on TAP agar plates at 18° C. A loopful of cells was added to 50 mL of TAP Cu minus medium and the culture incubated with shaking at 200 rpm at 27° C. for 24 h. The culture (10 to 20 mL aliquot) was centrifuged in a bench centrifuge at 2000 rpm for 2 min. The resulting cell pellet was resuspended in 5 mL sterile milli Q water (which had been treated with Chelex 100 resin using 0.5 g resin per liter of water by stirring at room temperature for 1 h), and recentrifuged. The cells were resuspended in TAP Cu minus medium, and the suspension adjusted to 2×10^5 spores per mL. Microtiter plates containing compounds as described above were inoculated with 100 μL of this cell suspension and the plates incubated at 27° C. for 48 h before assessing algal growth by measuring light scattering in a NepheloStar plate-reader. Growth inhibition was determined by comparing growth in the presence of test compound with growth in control wells lacking test compound. Hydrazones and their isolated metal complexes were compared with respect to their in vitro activity toward C. reinhardtii and the cyanobacterium (blue-green alga) Synechocystis sp. strain 6803. Metal complexes of hydrazones were prepared by precipitation from ethanol with various metal salts at 1:1, 2:1 or 3:1 molar ratios, as described in general by Ainscough, Brodie, Dobbs, Ranford, and Waters (Inorganica Chimica Acta 1998, 267, 27-38, which is expressly incorporated by reference herein). In vitro assays against C. reinhardtii were conducted as described in Example 10 using TAP Cu minus medium. Growth inhibition was determined by comparing growth in the presence of test compound with growth in control wells lacking test compound. Results for growth inhibition of C. reinhardtii by hydrazones and corresponding isolated metal complexes (each at 1 μg/mL) are shown in Table 6.

The test system of series [1] is Synechocystis sp. strain 6803. Kind of series: Growth inhibition of Synechocystis by hydrazones and isolated metal-hydrazone complexes, BG-11 Cu minus medium (Example 12). The following applies: Synechocystis, Test Concn. 0.05 μg/ml, read-out: Hydrazone % Inhn. Type of series: cell-based. As to the method: In vitro toxicity assays against the cyanobacterium (blue-green alga) Synechocystis sp. strain 6803 were conducted using BG-11 medium except that copper micronutrient, normally included as CuSO4.5H2O, was omitted. The medium, termed BG-11 Cu minus, was prepared by dissolving 1.5 g NaNO3, 40 mg K2HPO4, 6 mg citric acid, 1 mg Na2EDTA and 20 mg Na2CO3 in 1 liter of milli Q water and treating the solution with 0.5 g Chelex 100 resin (Bio-Rad Analytical grade, 50-100 mesh, sodium form, cat#142-2822) by stifling at room temperature for 1 h. 900 mL were decanted and 67.5 mg MgSO4.7H2O, 32.4 mg […], 5.4 mg ferric ammonium citrate and 0.9 mL trace metal mix A5 without copper (2.86 g H3BO3, 1.81 g MnCl2.4H2O, 222 mg ZnSO4.7H2O, 390 mg Na2MoO4.2H2O and Co(NO3)2.6H2O in 1 L Milli Q water) was added. The pH was adjusted to 7.1 and the medium was filter-sterilized. Medium containing copper (BG-11 Cu plus) was prepared by adding CuCl2.2H2O to the BG-11 Cu minus medium at 0.2 μM. Test compounds were dissolved in dimethylsulfoxide (DMSO) at 2 mg/mL then appropriate dilutions in BG-11 Cu minus and BG-11 Cu plus media were prepared in sterilized microcentrifuge tubes. 100 μL aliquots were dispensed into flat-bottomed 96-well microtiter plates. Synechocystis was maintained under 24 h of light on BG-11 agar plates at 27° C. A loopful of cells was added to 50 mL of BG-11 Cu minus growth medium and the culture was incubated with shaking at 200 rpm at 27° C. for 24 h. The culture (10 to 20 mL aliquot) was centrifuged in a bench centrifuge at 2400 rpm for 2 min. The resulting cell pellet was resuspended in 5 mL sterile milli Q water (which had been treated with Chelex 100 resin using 0.5 g resin per liter of water by stirring at room temperature for 1 h), and recentrifuged. The cells were resuspended in BG-11 Cu minus medium, and the suspension adjusted to 4×10^5 spores per mL. Microtiter plates containing compounds as described above were inoculated with 100 μL of this cell suspension and the plates incubated at 27° C. for 72 h before assessing algal growth by measuring light scattering in a NepheloStar plate reader. Growth inhibition was determined by comparing growth in the presence of test compound with growth in control wells lacking test compound. Hydrazones and their isolated metal complexes were compared with respect to their in vitro activity toward C. reinhardtii and the cyanobacterium (blue-green alga) Synechocystis sp. strain 6803. Metal complexes of hydrazones were prepared by precipitation from ethanol with various metal salts at 1:1, 2:1 or 3:1 molar ratios, as described in general by Ainscough, Brodie, Dobbs, Ranford, and Waters (Inorganica Chimica Acta 1998, 267, 27-38, which is expressly incorporated by reference herein). In vitro assays against Synechocystis were conducted as described in Example 11 using BG-11 Cu minus medium. Growth inhibition was determined by comparing growth in the presence of test compound with growth in control wells lacking test compound.

As to `O=C(N/N=C/c1cc(Cl)cc(Cl)c1O)c1ccc(Cl)cc1` [Compound 64], in the series on C. reinhardtii CC-1928, the inhibition of growth at 1 µg/mL is -5% and the “% Inhn. Plus Copper Observed” value stood at 97%. The inhibition of growth at 1 µg/mL in the series on C. reinhardtii was -5%.

In general, melting point refers to the temperature of the solid-liquid transition. With `C/C(=N\NC(=O)c1cccc(Cl)c1)c1cc(Cl)cc(Cl)c1O` [Compound 65], the melting point fell in the range of 245 to 246 °C. In the series on C. reinhardtii CC-1928, the inhibition of growth at 1 µg/mL is -5% and the “% Inhn. Plus Copper Observed” value is listed as 97%. Also, the inhibition of growth at 1 µg/mL in the series with C. reinhardtii is -5%.

With `O=C(N/N=C/c1cc(Cl)cc(C(F)(F)F)c1O)c1ccc(Cl)cc1` [Compound 66], the melting point was 232 to 234 °C. Moreover, in the series on C. reinhardtii CC-1928, the inhibition of growth at 1 µg/mL was -4% and the “% Inhn. Plus Copper Observed” value was 97%. The inhibition of growth at 1 µg/mL in the series on C. reinhardtii was -4%.

Compound `O=C(N/N=C/c1cc(C(F)(F)F)ccc1O)c1ccccc1` [Compound 68] displayed a melting point of 214 to 217 °C. Besides, the inhibition of growth at 0.05 µg/mL in series [1] was found to be 16%.

On to `C/C(=N\NC(=O)c1cccc(C)c1)c1cc(Cl)cc(Cl)c1O.[Cl-].[Cl-].[Cu+2]` [Compound 90], for which, in the series on C. reinhardtii (isolated metal complex 1 μg/mL), the “Complex % Inhn.” value stood at 49%.
